Laboratory results taken from publication PMC6218510, “Step Sizes and Rate Constants of Single-headed Cytoplasmic Dynein Measured with Optical Tweezers” (Scientific Reports, 2018).

What was measured:
[1] = biological target: T1, D384GB (D384 with GFP at the linker N-terminus and BFP in AAA2) (Homo sapiens, UniProt Q14204); test: BFP-GFP FRET efficiency of linker swing against ATP, steady state; type: biochemical; settings: no microtubules; ATP-regenerating system (creatine phosphate / creatine phosphate kinase); 100 nM dynein; conformational read-out, not a turnover Km; read-out: Km^E (k1/kT)
T1 construct: gene DYNC1H1; Gly1288-Glu4646; N-terminal FLAG, BCCP and AcGFP kept; BFP inserted between Glu2404 and Gly2405 (AAA2); Sf9; monomer

[2] = biological target: T1, D384GB (D384 with GFP at the linker N-terminus and BFP in AAA2); test: ATPase assay, phosphate release (EnzChek, absorbance […] nm); type: biochemical; settings: basal, no microtubules; 25 °C; read-out: Michaelis-Menten constant

T1 sequence (Q14204 1288-2404): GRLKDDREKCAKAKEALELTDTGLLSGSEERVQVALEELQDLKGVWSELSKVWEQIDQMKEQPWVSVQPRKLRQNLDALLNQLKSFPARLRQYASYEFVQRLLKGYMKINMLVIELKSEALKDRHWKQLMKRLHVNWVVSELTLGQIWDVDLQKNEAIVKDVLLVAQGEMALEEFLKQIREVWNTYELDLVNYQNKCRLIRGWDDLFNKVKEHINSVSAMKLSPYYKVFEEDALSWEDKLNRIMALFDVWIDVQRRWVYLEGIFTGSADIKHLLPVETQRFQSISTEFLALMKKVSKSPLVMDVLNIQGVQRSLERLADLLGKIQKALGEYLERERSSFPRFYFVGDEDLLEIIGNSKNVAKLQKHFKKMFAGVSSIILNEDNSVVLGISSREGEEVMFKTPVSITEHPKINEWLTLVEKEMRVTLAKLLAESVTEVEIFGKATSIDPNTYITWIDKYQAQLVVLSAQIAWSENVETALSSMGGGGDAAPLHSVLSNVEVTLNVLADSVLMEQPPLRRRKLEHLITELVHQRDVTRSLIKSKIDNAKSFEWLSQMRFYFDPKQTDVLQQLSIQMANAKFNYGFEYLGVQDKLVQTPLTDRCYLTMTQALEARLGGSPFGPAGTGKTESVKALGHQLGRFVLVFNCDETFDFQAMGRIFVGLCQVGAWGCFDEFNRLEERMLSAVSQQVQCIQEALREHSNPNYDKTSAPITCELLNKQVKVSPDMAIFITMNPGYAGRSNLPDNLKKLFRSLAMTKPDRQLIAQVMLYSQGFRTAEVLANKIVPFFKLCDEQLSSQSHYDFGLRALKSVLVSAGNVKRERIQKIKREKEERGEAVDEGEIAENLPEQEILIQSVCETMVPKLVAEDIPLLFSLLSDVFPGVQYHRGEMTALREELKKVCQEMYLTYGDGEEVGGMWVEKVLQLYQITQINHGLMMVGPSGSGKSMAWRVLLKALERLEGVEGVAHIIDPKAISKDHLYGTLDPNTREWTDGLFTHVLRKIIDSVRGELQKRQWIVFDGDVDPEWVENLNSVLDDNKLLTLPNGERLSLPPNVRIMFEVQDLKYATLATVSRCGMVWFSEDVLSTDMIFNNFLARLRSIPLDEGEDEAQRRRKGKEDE
T1 sequence (Q14204 2405-4646): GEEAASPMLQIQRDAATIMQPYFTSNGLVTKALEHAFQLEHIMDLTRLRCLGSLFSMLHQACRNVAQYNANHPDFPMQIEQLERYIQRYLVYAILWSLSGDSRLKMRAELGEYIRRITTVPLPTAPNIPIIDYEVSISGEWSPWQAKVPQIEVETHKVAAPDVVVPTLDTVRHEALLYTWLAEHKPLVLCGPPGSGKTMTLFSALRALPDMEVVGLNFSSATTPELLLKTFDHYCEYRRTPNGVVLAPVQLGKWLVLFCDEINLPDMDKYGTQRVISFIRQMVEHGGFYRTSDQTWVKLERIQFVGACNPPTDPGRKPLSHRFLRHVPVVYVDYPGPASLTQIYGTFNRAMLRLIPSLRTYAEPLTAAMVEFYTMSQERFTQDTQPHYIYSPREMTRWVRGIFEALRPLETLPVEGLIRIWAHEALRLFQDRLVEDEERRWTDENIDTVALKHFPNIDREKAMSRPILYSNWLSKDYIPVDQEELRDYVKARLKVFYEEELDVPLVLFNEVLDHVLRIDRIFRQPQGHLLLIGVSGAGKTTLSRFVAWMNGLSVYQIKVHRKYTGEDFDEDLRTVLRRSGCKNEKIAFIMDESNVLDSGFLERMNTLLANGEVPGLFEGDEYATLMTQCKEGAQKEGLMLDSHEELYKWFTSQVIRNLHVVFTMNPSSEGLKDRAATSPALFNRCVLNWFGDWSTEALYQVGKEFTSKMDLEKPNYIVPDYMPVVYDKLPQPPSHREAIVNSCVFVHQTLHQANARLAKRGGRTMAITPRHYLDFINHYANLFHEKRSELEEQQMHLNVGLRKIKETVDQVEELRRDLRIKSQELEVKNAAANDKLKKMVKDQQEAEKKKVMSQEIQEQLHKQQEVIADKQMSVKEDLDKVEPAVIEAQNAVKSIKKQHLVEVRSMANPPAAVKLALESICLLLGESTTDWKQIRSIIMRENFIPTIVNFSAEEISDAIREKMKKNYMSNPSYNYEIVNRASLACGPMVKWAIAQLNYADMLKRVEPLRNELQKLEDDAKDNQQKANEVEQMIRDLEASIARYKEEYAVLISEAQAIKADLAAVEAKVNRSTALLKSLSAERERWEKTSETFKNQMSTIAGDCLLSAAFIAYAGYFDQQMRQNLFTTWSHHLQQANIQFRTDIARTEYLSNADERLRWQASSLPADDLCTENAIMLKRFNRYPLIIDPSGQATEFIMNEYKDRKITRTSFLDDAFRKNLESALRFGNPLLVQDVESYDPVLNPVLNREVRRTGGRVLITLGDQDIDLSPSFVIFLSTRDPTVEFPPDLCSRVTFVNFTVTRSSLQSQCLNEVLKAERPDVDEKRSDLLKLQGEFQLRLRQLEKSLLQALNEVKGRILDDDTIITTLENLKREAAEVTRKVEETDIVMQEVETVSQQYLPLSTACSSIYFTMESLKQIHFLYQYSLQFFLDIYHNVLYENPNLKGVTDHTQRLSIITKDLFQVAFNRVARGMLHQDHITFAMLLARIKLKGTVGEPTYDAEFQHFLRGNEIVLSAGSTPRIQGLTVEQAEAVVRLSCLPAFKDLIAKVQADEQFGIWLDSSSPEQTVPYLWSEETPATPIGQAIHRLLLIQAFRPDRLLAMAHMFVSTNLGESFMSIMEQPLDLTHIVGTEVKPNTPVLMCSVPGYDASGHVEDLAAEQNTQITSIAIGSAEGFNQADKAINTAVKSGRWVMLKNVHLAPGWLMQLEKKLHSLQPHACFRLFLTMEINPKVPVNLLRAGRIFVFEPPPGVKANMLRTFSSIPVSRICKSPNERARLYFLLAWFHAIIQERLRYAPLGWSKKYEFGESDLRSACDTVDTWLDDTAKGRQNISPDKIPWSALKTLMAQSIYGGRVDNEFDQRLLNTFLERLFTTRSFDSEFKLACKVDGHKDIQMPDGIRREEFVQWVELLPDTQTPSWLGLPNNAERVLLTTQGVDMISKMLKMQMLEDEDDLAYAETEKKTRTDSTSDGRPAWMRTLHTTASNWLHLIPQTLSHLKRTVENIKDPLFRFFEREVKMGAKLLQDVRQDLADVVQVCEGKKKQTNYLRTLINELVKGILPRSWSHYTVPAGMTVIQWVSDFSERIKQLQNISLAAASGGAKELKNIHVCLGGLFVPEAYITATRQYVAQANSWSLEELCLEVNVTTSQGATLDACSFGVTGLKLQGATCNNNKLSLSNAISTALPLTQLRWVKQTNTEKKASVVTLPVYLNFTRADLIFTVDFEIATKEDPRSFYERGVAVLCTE

In the case of Nc1ncnc2c1ncn2[C@@H]1O[C@H](COP(=O)(O)OP(=O)(O)OP(=O)(O)O)[C@@H](O)[C@H]1O [ATP], the Km [1] is reported as 3.3 ± 0.3 µM and the Km [2] is reported as 27 ± 3 µM.
